In data set [1] the test system is HT-29. Nature of the data set: Down-regulation of c-Myc protein expression in human HT-29 cells assessed as c-Myc protein level at 240 uM after 48 hrs by ELISA (reference value: 100%). It counts as functional. On the technique in general: ELISA stands for enzyme-linked immunosorbent assay.
The test system of data set [2] is HT-29. The experiment in a line: Down-regulation of c-Myc mRNA expression in human HT-29 cells assessed as c-Myc mRNA level at 240 uM after 48 hrs by RT-qPCR analysis (reference value: 100%). Type of data set: functional.
A further data set deals with MCF7. The experiment in a line: Cytotoxicity against human MCF7 cells assessed as decrease in cell viability after 2 days by MTT assay. It counts as functional, cell-based. The conditions noted are these: MCF7, 48 h. (In general: Formazan colour is commonly taken as a measure of viable cells.)
The nature of data set [3]: Selectivity index, ratio of IC50 for HEK293 cells to IC50 for human HT-29 cells. Type of data set: toxicity. The conditions noted are these: HEK293 cells versus HT-29 cells, read-out: Ratio IC50.
A short description of data set [4]: Selectivity index, ratio of IC50 for HEK293 cells to IC50 for human MCF7 cells. To be noted: HEK293 cells versus MCF7 cells.
Data set [5] deals with HT-29. Nature of the data set: Cytotoxicity against human HT-29 cells assessed as decrease in cell viability after 2 days by MTT assay. It counts as functional, cell-based. To be noted: HT-29, 48 h.
Data set [6] deals with HT-29. The experiment in a line: Down-regulation of hTERT mRNA expression in human HT-29 cells assessed as hTERT mRNA level at 240 uM after 48 hrs by RT-qPCR analysis (reference value: 100%). It counts as functional. In general terms: Quantitative PCR measures a nucleic acid by following its amplification.
Data set [7] deals with HT-29. Nature of the data set: Down-regulation of VEGFRA mRNA expression in human HT-29 cells assessed as VEGFRA mRNA level at 240 uM after 48 hrs by RT-qPCR analysis (reference value: 100%). It counts as functional.
For data set [8], the system named is HT-29. The experiment in a line: Down-regulation of VEGFA protein expression in human HT-29 cells assessed as VEGFA protein level at 240 uM after 48 hrs by ELISA (reference value: 100%). Type of data set: functional.
For the next data set, the system named is HEK293. The experiment in a line: Cytotoxicity against HEK293 cells assessed as decrease in cell viability after 2 days by MTT assay. It counts as ADME, cell-based. To be noted: Homo sapiens, HEK293, 48 h.
Data set [9] relates to HT-29. The experiment in a line: Down-regulation of c-Myc mRNA expression in human HT-29 cells assessed as c-Myc mRNA level at 145 uM after 48 hrs by RT-qPCR analysis (reference value: 100%). Type of data set: functional.
Data set [10] has as its system HT-29. Nature of the data set: Down-regulation of VEGFRA mRNA expression in human HT-29 cells assessed as VEGFRA mRNA level at 145 uM after 48 hrs by RT-qPCR analysis (reference value: 100%). It counts as functional.
Data set [11] relates to HT-29. Nature of the data set: Down-regulation of c-Myc protein expression in human HT-29 cells assessed as c-Myc protein level at 145 uM after 48 hrs by ELISA (reference value: 100%). Type of data set: functional.
Data set [12] has as its system HT-29. The experiment in a line: Down-regulation of hTERT mRNA expression in human HT-29 cells assessed as hTERT mRNA level at 145 uM after 48 hrs by RT-qPCR analysis (reference value: 100%). Type of data set: functional.
Data set [13] deals with HT-29. Nature of the data set: Down-regulation of VEGFA protein expression in human HT-29 cells assessed as VEGFA protein level at 145 uM after 48 hrs by ELISA (reference value: 100%). It counts as functional.
For data set [14], the system named is HT-29. The experiment in a line: Down-regulation of c-Myc protein expression in human HT-29 cells assessed as c-Myc protein level at 10 uM after 48 hrs by ELISA (reference value: 100%). Type of data set: functional.
Data set [15] deals with HT-29. Nature of the data set: Down-regulation of VEGFA protein expression in human HT-29 cells assessed as VEGFA protein level at 10 uM after 48 hrs by ELISA (reference value: 100%). Type of data set: functional.
Data set [16] deals with HT-29. The experiment in a line: Down-regulation of c-Myc mRNA expression in human HT-29 cells assessed as c-Myc mRNA level at 10 uM after 48 hrs by RT-qPCR analysis (reference value: 100%). It counts as functional.
Data set [17] concerns HT-29. The experiment in a line: Down-regulation of hTERT mRNA expression in human HT-29 cells assessed as hTERT mRNA level at 10 uM after 48 hrs by RT-qPCR analysis (reference value: 100%). Type of data set: functional.
The subject of data set [18] is HT-29. The experiment in a line: Down-regulation of VEGFRA mRNA expression in human HT-29 cells assessed as VEGFRA mRNA level at 10 uM after 48 hrs by RT-qPCR analysis (reference value: 100%). It counts as functional.

What is called pIC50 is the negative decadic logarithm of the IC50, by convention in mol/L.

pIC50: −log10 of the molar value.

`c1ccc(-c2cccnc2)cc1`: the Activity is 60% in the data set on HT-29 [1]; 35% in the data set on HT-29 [2]; 56% in the data set with HT-29 [6]; 34% in the data set on HT-29 [7]; 42% in the data set on HT-29 [8]. In addition, the pIC50 was below 3.40 in the data set on MCF7, below 3.40 in the data set with HT-29 [5] and 3.49 with HEK293. The selectivity ratio in data set [3] and in data set [4] was below 1 each time.

As for `Oc1ccccc1-c1cccnc1`, the Activity with HT-29 [9] is listed as 39%; in the data set with HT-29 [10], 18%; in the data set with HT-29 [11], 100%; with HT-29 [12], 44%; in the data set with HT-29 [13] it was 96%. Also, the pIC50 in the data set on MCF7 is 4.39; with HT-29 [5], 3.94; in the data set on HEK293 it was 3.53. Also, the values for the selectivity ratio in data set [3] and in [4] were 2 and 7, respectively.

`COc1cccc(N2CCCCC2)c1`: the Activity turned out to be 100% with HT-29 [14]; 42% with HT-29 [15]; 63% in the data set with HT-29 [16]; 30% with HT-29 [17]; 44% with HT-29 [18]. For the same compound, the negative-log IC50 (pIC50) in the data set with MCF7 is 3.80; with HT-29 [5], 4.59; in the data set on HEK293 it was below 3.40. Also, the selectivity ratio came to 20 in [3] and 3 in data set [4].

(Values after ChEMBL document CHEMBL4368926, “Arylpyridines, arylpyrimidines and related compounds as potential modulator agents of the VEGF, hTERT and c-Myc oncogenes” (Bioorg Med Chem, 2019).)
